In US20110065706A1, “Therapeutic Agents 812” (AstraZeneca AB, priority 2009, published 2011):

Molecular target: T1, human GPR119 (Homo sapiens, UniProt Q8TDV5)
T1 construct: expressed in transfected cells; host or cells: HEK 293s
T1 sequence (Q8TDV5 1-335): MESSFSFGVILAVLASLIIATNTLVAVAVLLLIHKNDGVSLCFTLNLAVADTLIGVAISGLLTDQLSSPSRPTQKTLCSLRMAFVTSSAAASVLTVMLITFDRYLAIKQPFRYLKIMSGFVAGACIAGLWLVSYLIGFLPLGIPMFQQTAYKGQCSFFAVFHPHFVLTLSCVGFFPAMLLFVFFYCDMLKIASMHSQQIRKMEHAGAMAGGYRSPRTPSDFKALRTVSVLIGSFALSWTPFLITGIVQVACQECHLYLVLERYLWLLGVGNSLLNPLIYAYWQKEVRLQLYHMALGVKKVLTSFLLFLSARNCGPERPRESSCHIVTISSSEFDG
Experiment: Cyclic AMP (HTRF cAMP) assay for human GPR119, Method A
Assay type: cell-based
Conditions: HEK293S, 0.75 h; Method A; HEK 293s cells over-expressing human GPR119; percent effect at top concentration 30 μM relative to maximum (50 μM Oleoylethanolamide) and minimum (1% DMSO) controls

Q: With `CC(C)(C)OC(=O)N1CCN(c2ncc(OCc3ccc(S(C)(=O)=O)cc3)cn2)CC1` [Example 1, Tert-butyl 4-(5-(4-(methylsulfonyl)benzyloxy)pyrimidin-2-yl)piperazine-1-carboxylate] as the compound, how does the activation at 30 µM read?
A: Its activation at 30 µM is 83%.

Q: For `CC1(OC(=O)N2CCN(c3ncc(OCc4ccncc4C#N)cn3)CC2)CC1` [Example 62, 1-methylcyclo-propyl 4-(5-((3-cyanopyridin-4-yl)methoxy)pyrimidin-2-yl)piperazine-1-carboxylate], which activation at 30 µM is on record?
A: The activation at 30 µM was 208%.

Q: `N#Cc1cnccc1COc1cnc(N2CCN(C(=O)OC3COC3)CC2)nc1` [Example 77, oxetan-3-yl 4-(5-((3-cyanopyridin-4-yl)methoxy)pyrimidin-2-yl)piperazine-1-carboxylate] was tested. Which activation at 30 µM did it give?
A: Its activation at 30 µM is 92%.

Q: For `CC(C)OC(=O)N1CCN(c2ncc(OCc3ccncc3C#N)cn2)CC1` [Example 58, isopropyl 4-(5-((3-cyanopyridin-4-yl)methoxy)pyrimidin-2-yl)piperazine-1-carboxylate], which activation at 30 µM is on record?
A: The activation at 30 µM was 154%.

Q: Which activation at 30 µM does the source give for `C[C@@H]1CN(C(=O)OC2CCOC2)CCN1c1ncc(OCc2ccc(S(C)(=O)=O)cc2)cn1` (stereo partly drawn) [Example 78, (3R)-Tetrahydrofuran-3-yl 3-methyl-4-(5-(4-(methylsulfonyl)benzyloxy)pyrimidin-2-yl)piperazine-1-carboxylate] here?
A: Its activation at 30 µM is 8%.

Q: With `N#Cc1cnccc1COc1cnc(N2CCN(C(=O)OCC(F)(F)F)CC2)nc1` [Example 106, 2,2,2-trifluorocthyl 4-(5-((3-cyanopyridin-4-yl)mcthoxy)pyrimidin-2-yl)pipcrazinc-1-carboxylate] as the compound, how does the activation at 30 µM read?
A: Its activation at 30 µM is 193%.

Q: For `CC(C)(C)OC(=O)N1CCN(c2ncc(OCc3ccc(S(=O)(=O)CCN4CCOCC4)cc3)cn2)CC1` [Example 92, Tert-butyl 4-(5-(4-(2-morpholinoethylsulfonyl)benzyloxy)pyrimidin-2-yl)piperazine-1-carboxylate], which activation at 30 µM is on record?
A: The activation at 30 µM was 68%.

Q: For `CN(C)CCN(C)C(=O)c1ccc(COc2cnc(N3CCN(C(=O)OC(C)(C)C)CC3)nc2)cc1` [Example 49, tert-butyl 4-(5-(4-((2-(dimethylamino)ethyl)(methyl)carbamoyl)benzyloxy)pyrim-idin-2-yl)piperazine-1-carboxylate], which activation at 30 µM is on record?
A: Its activation at 30 µM is 27%.

Q: With `C[C@@H]1CN(C(=O)O[C@@H](C)C(F)(F)F)CCN1c1ncc(OCc2ccncc2C#N)cn1` [Example 104, (R)-((S)-1,1,1-trifluoropropan-2-yl)4-(5-((3-cyanopyridin-4-yl)methoxy)pyrimidin-2-yl)-3-mcthylpipcrazine-1-carboxylate] as the compound, how does the activation at 30 µM read?
A: The activation at 30 µM was 315%.

Q: With `C[C@@H]1CN(C(=O)O[C@H](C)C(F)(F)F)CCN1c1ncc(OCc2ccncc2C#N)cn1` [Example 103, (R)—((R)-1,1,1-trifluoropropan-2-yl) 4-(5-((3-cyanopyridin-4-yl)methoxy)pyrimidin-2-yl)-3-methylpiperazine-1-carboxylate] as the compound, how does the activation at 30 µM read?
A: Its activation at 30 µM is 244%.

Q: `COc1cc(COc2cnc(N3CCN(C(=O)OC(C)(C)C)CC3)nc2)c(F)cn1` [Example 8, tert-butyl 4-(5-((5-fluoro-2-methoxy-pyridin-4-yl)methoxy)pyrimidin-2-yl)piperazine-1-carboxylate] was tested. Which activation at 30 µM did it give?
A: The activation at 30 µM was 26%.

Q: `Cc1cc(S(C)(=O)=O)ccc1COc1cnc(N2CCN(C(=O)OC(C)(C)C)CC2)nc1` [Example 33, tert-butyl 4-(5-(2-methyl-4-(methylsulfonyl)benzyloxy)pyrimidin-2-yl)piperazine-1-carboxylate] was tested. Which activation at 30 µM did it give?
A: The activation at 30 µM was 82%.

Q: With `N#Cc1cnccc1COc1cnc(N2CCN(c3ncc(F)cn3)CC2)nc1` [Example 40, 4-((2-(4-(5-Fluoropyrimidin-2-yl)piperazin-1-yl)pyrimidin-5-yloxy)methyl)nicotinonitrile] as the compound, how does the activation at 30 µM read?
A: Its activation at 30 µM is 90%.

Q: How did the activation at 30 µM turn out when `CC(C)(C#N)OC(=O)N1CCN(c2ncc(OCc3ccc(S(C)(=O)=O)cc3)cn2)CC1` [Example 70, 2-Cyanopropan-2-yl 4-(5-(4-(methylsulfonyl)benzyloxy)pyrimidin-2-yl)piperazine-1-carboxylate] was run?
A: The activation at 30 µM was 28%.

Q: Which activation at 30 µM does the source give for `CC(C)(C#N)OC(=O)N1CCN(c2ncc(OCc3ccncc3C#N)cn2)CC1` [Example 72, 2-cyanopropan-2-yl 4-(5-((3-cyanopyridin-4-yl)methoxy)pyrimidin-2-yl)piperazine-1-carboxylate] here?
A: The activation at 30 µM was 173%.

Q: For `CS(=O)(=O)c1ccc(COc2cnc(N3CCN(C(=O)OC4COC4)CC3)nc2)cc1` [Example 75, Oxetan-3-yl 4-(5-(4-(methylsulfonyl)benzyloxy)pyrimidin-2-yl)piperazine-1-carboxylate], which activation at 30 µM is on record?
A: Its activation at 30 µM is 31%.

Q: For `CC(OC(=O)N1CCN(c2ncc(OCc3ccc(S(C)(=O)=O)cc3)cn2)CC1)C(F)(F)F` (centres unmarked) [Example 66, 1,1,1-Trifluoropropan-2-yl 4-(5-(4-(methylsulfonyl)benzyloxy)pyrimidin-2-yl)piperazine-1-carboxylate], which activation at 30 µM is on record?
A: Its activation at 30 µM is 56%.

Q: How did the activation at 30 µM turn out when `N#Cc1cnccc1COc1cnc(N2CCN(C(=O)OC3CCC3)CC2)nc1` [Example 65, cyclobutyl 4-(5-((3-cyanopyri-din-4-yl)methoxy)pyrimidin-2-yl)piperazine-1-carboxylate] was run?
A: Its activation at 30 µM is 164%.

Q: With `Cc1nc(-c2ccc(COc3cnc(N4CCN(C(=O)OC(C)(C)C)CC4)nc3)cc2)no1` [Example 4, tert-butyl 4-(5-(4-(5-methyl-1,2,4-oxadiazol-3-yl)benzyloxy)pyrimidin-2-yl)piperazine-1-carboxylate] as the compound, how does the activation at 30 µM read?
A: The activation at 30 µM was 69%.

Q: Which activation at 30 µM does the source give for `CC(C)C(=O)Nc1ncc(COc2cnc(N3CCN(C(=O)OC(C)(C)C)CC3)nc2)cn1` [Example 94, Tert-butyl 4-(5-((2-isobutyramidopyrimidin-5-yl)methoxy)pyrimidin-2-yl)piperazine-1-carboxylate] here?
A: The activation at 30 µM was 44%.

Q: For `CS(=O)(=O)c1ccc(COc2cnc(N3CCN(c4ncc(F)cn4)CC3)nc2)cc1` [Example 42, 5-fluoro-2-(4-(5-(4-(methylsulfonyl)benzyloxy)pyrim-idin-2-yl)piperazin-1-yl)pyrimidine], which activation at 30 µM is on record?
A: The activation at 30 µM was 64%.

Q: With `CC(C)(C)OC(=O)N1CCN(c2ncc(OCc3ccc(S(C)(=O)=O)c(F)c3)cn2)CC1` [Example 32, tert-butyl 4-(5-(3-fluoro-4-(methylsulfonyl)benzyloxy)pyrimidin-2-yl)piperazine-1-carboxylate] as the compound, how does the activation at 30 µM read?
A: Its activation at 30 µM is 62%.

Q: `CN1CCC(CNC(=O)c2ccc(COc3cnc(N4CCN(C(=O)OC(C)(C)C)CC4)nc3)cc2)CC1` [Example 52, tert-butyl 4-(5-(4-((1-methylpiper-idin-4-yl)methylcarba-moyl)benzyl-oxy)pyrimidin-2-yl)piperazine-1-carboxylate] was tested. Which activation at 30 µM did it give?
A: Its activation at 30 µM is 20%.

Same assay, conditions: Method A; HEK 293s cells over-expressing human GPR119; midpoint of dose response curve; selected examples

Q: For `CC1(OC(=O)N2CCN(c3ncc(OCc4ccncc4C#N)cn3)CC2)CC1` [Example 62, 1-methylcyclo-propyl 4-(5-((3-cyanopyridin-4-yl)methoxy)pyrimidin-2-yl)piperazine-1-carboxylate], which EC50 is on record?
A: The EC50 was 116 nM.

Q: Which EC50 does the source give for `CN(C)CCN(C)C(=O)c1ccc(COc2cnc(N3CCN(C(=O)OC(C)(C)C)CC3)nc2)cc1` [Example 49, tert-butyl 4-(5-(4-((2-(dimethylamino)ethyl)(methyl)carbamoyl)benzyloxy)pyrim-idin-2-yl)piperazine-1-carboxylate] here?
A: Its EC50 is 2040 nM.

Q: `CS(=O)(=O)c1ccc(COc2cnc(N3CCN(c4ncc(F)cn4)CC3)nc2)cc1` [Example 42, 5-fluoro-2-(4-(5-(4-(methylsulfonyl)benzyloxy)pyrim-idin-2-yl)piperazin-1-yl)pyrimidine] was tested. Which EC50 did it give?
A: Its EC50 is 156 nM.
